Values quoted from earlier work in PMC7544826 (Communications Biology, 2020).

Tests used:
[1] = test system: adenosine receptors; settings: through the adenosine receptors; cited from earlier work
[2] = test system: brain; settings: at plasma concentration 150 µM; cited from earlier work

Cn1c(=O)c2c(ncn2C)n(C)c1=O [caffeine, 1,3,7-trimethylxanthine]
Concentration at which CNS stimulating effects are apparent [1]: 2.5 µM | Adverse effects on the brain [2]: does not appear to have adverse effects on the brain
